In paper PMC5972582, “Bidirectional GPR119 Agonism Requires Peptide YY and Glucose for Activity in Mouse and Human Colon Mucosa” (Endocrinology, 2018):

Target: T1, GPR119 (WT mouse descending colon mucosa) (Mus musculus, UniProt Q7TQP3)
T1 construct: native full-length receptor in L-cells of intact mouse colonic mucosa (Ussing chamber); no recombinant protein
T1 sequence (Q7TQP3 1-335): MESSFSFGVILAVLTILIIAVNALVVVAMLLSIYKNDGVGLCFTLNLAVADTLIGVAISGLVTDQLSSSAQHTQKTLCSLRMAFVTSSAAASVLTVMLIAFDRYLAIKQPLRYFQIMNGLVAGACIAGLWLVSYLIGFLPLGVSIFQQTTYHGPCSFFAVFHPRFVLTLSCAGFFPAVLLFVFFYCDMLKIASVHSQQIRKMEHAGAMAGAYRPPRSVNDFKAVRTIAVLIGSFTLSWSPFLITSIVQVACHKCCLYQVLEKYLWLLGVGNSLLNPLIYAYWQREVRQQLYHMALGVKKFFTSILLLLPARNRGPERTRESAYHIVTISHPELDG
Experiment: short-circuit current (Isc) in native mouse descending colon mucosa, Ussing chamber
Conditions: agonist, apical addition, indirect tissue read-out (PYY-mediated fall in Isc) after 10 nM VIP, 11.1 mM glucose
From the text: short-circuit current (Isc) in native mouse descending colon mucosa, Ussing chamber on GPR119 (WT mouse descending colon mucosa)

EC50 | EC50 (partial agonist) | Compound
4.9 µM |  | CCCCCCCC/C=C\CCCCCCCC(=O)OC(CO)CO [2-OG]
 | 0.0012 µM | CC(C)c1noc(C2CCN(c3ncnc(Nc4ccc(S(C)(=O)=O)cc4F)c3[N+](=O)[O-])CC2)n1 [AR231453]
14.7 µM |  | CCCCCCCC/C=C\CCCCCCCC(=O)NCCO [OEA]
0.0277 µM |  | AR435707
0.17 µM |  | AR440006
